Tests used:
Format in all cases: cell-based
Moraxella catarrhalis = test: MIC against Gram-negative bacteria: Moraxella catarrhalis; details: 5×10^5 CFU/mL; for MIC M. catarrhalis: two-fold serial dilution
Summary of the method: (§1)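 Broth microdilution, LB medium, final inoculum 5×10^5 CFU/mL from McFarland 0.5 cultures. Recombinant human EGF domain proteins tested in two-fold steps, n=3. MIC: lowest concentration, no growth.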

Pseudomonas aeruginosa = test: MIC against Gram-negative bacteria: Pseudomonas aeruginosa; details: 5×10^5 CFU/mL; for MIC P. aeruginosa: two-fold serial dilution
Summary of the method: as §1

Proteus mirabilis = test: MIC against Gram-negative bacteria: Proteus mirabilis; details: 5×10^5 CFU/mL; for MIC P. mirabilis: two-fold serial dilution
Summary of the method: as §1

Proteus vulgaris = test: MIC against Gram-negative bacteria: Proteus vulgaris; details: 5×10^5 CFU/mL; for MIC P. vulgaris: two-fold serial dilution
Summary of the method: as §1

E. coli DH5α = test: Antibacterial activity: MIC and growth curve against E. coli DH5α in 96-well plate; details: minimal inhibitory concentration against E. coli DH5α; 96-well plate, 5×10^5 CFU/mL, 37° C., judged after 8 h
Summary of the method: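 MIC taken as lowest protein level with no bacterial growth, tracked by A600 every 30 min during 37 °C, 175 rpm culture. Two-fold protein series 50-12.5 μg/mL final, triplicate wells, against 5×10^5 CFU/mL of LB-washed mid-log cells.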

Citrobacter diversus = test: MIC against Gram-negative bacteria: Citrobacter diversus; details: 5×10^5 CFU/mL; for MIC C. diversus: two-fold serial dilution
Summary of the method: as §1

Klebsiella pneumonia = test: MIC against Gram-negative bacteria: Klebsiella pneumonia; details: 5×10^5 CFU/mL; for MIC K. pneumonia: two-fold serial dilution
Summary of the method: as §1

Enterobacter cloacae = test: MIC against Gram-negative bacteria: Enterobacter cloacae; details: 5×10^5 CFU/mL; for MIC E. cloacae: two-fold serial dilution
Summary of the method: as §1

E. coli BL21 = test: MIC against Gram-negative bacteria: E. coli BL21; details: 5×10^5 CFU/mL; for MIC E. coli BL21: two-fold serial dilution
Summary of the method: as §1

Aeromonas hydrophila = test: MIC against Gram-negative bacteria: Aeromonas hydrophila; details: 5×10^5 CFU/mL; for MIC A. hydrophila: two-fold serial dilution
Summary of the method: as §1

Serratia marcescens = test: MIC against Gram-negative bacteria: Serratia marcescens; details: 5×10^5 CFU/mL; for MIC S. marcescens: two-fold serial dilution
Summary of the method: as §1

[1] = Moraxella catarrhalis, 96-well plate, 37° C., 10 h
[2] = Pseudomonas aeruginosa, 96-well plate, 37° C., 10 h
[3] = Proteus mirabilis, 96-well plate, 37° C., 10 h
[4] = Proteus vulgaris, 96-well plate, 37° C., 10 h
[5] = Citrobacter diversus, 96-well plate, 37° C., 10 h
[6] = Klebsiella pneumonia, 96-well plate, 37° C., 10 h
[7] = Enterobacter cloacae, 96-well plate, 37° C., 10 h
[8] = Aeromonas hydrophila, 96-well plate, 37° C., 10 h
[9] = Serratia marcescens, 96-well plate, 37° C., 10 h

## PRT1361 (SELICPNDCFDRGRCINGTCYCEEGFTGEDCG; listed as Homo sapiens)
Moraxella catarrhalis; Moraxella catarrhalis, 10 h cultivation at 37° C.
  MIC against M. catarrhalis: 25 mg/L
Pseudomonas aeruginosa; Pseudomonas aeruginosa, 10 h cultivation at 37° C.
  MIC against P. aeruginosa: 25 mg/L
Proteus mirabilis; Proteus mirabilis, 10 h cultivation at 37° C.
  MIC against P. mirabilis: 12.5 mg/L
Proteus vulgaris; Proteus vulgaris, 10 h cultivation at 37° C.
  MIC against P. vulgaris: 25 mg/L
E. coli DH5α
  MIC: 25 mg/L
Citrobacter diversus; Citrobacter diversus, 10 h cultivation at 37° C.
  MIC against C. diversus: 50 mg/L
Klebsiella pneumonia; Klebsiella pneumonia, 10 h cultivation at 37° C.
  MIC against K. pneumonia: 50 mg/L
Enterobacter cloacae; Enterobacter cloacae, 10 h cultivation at 37° C.
  MIC against E. cloacae: 12.5 mg/L
E. coli BL21; 10 h cultivation at 37° C.
  MIC against E. coli BL21: 12.5 mg/L
Aeromonas hydrophila; Aeromonas hydrophila, 10 h cultivation at 37° C.
  MIC against A. hydrophila: 25 mg/L
Serratia marcescens; Serratia marcescens, 10 h cultivation at 37° C.
  MIC against S. marcescens: 50 mg/L

## PRT891 (DVDECASTPCKNGAKCLDGPNTYTCVCTEGYTGTHCE; listed as Homo sapiens)
Moraxella catarrhalis; M. catarrhalis, 10 h cultivation at 37° C.
  MIC (μg/mL) M. catarrhalis: 25 µg/mL
Pseudomonas aeruginosa; P. aeruginosa, 10 h cultivation at 37° C.
  MIC (μg/mL) P. aeruginosa: 12.5 µg/mL
Proteus mirabilis; P. mirabilis, 10 h cultivation at 37° C.
  MIC (μg/mL) P. mirabilis: 12.5 µg/mL
Proteus vulgaris; P. vulgaris, 10 h cultivation at 37° C.
  MIC (μg/mL) P. vulgaris: 25 µg/mL
E. coli DH5α
  MIC: 12.5 mg/L
Citrobacter diversus; C. diversus, 10 h cultivation at 37° C.
  MIC (μg/mL) C. diversus: 12.5 µg/mL
Klebsiella pneumonia; K. pneumonia, 10 h cultivation at 37° C.
  MIC (μg/mL) K. pneumonia: 25 µg/mL
Enterobacter cloacae; E. cloacae, 10 h cultivation at 37° C.
  MIC (μg/mL) E. cloacae: 12.5 µg/mL
E. coli BL21; 10 h cultivation at 37° C.
  MIC (μg/mL) E. coli BL21: 25 µg/mL
Aeromonas hydrophila; A. hydrophila, 10 h cultivation at 37° C.
  MIC (μg/mL) A. hydrophila: 25 µg/mL
Serratia marcescens; S. marcescens, 10 h cultivation at 37° C.
  MIC (μg/mL) S. marcescens: 50 µg/mL

## PRT1257 (CMNKDHGCAHICRETPKGGVACDCRPGFDLAQNQKDC; listed as Homo sapiens)
Moraxella catarrhalis; [1]
  MIC against M. catarrhalis: 12.5 mg/L
Pseudomonas aeruginosa; [2]
  MIC against P. aeruginosa: 25 mg/L
Proteus mirabilis; [3]
  MIC against P. mirabilis: 50 mg/L
Proteus vulgaris; [4]
  MIC against P. vulgaris: 12.5 mg/L
E. coli DH5α
  MIC: 12.5 mg/L
Citrobacter diversus; [5]
  MIC against C. diversus: 50 mg/L
Klebsiella pneumonia; [6]
  MIC against K. pneumonia: 12.5 mg/L
Enterobacter cloacae; [7]
  MIC against E. cloacae: 25 mg/L
E. coli BL21; 96-well plate, 37° C., 10 h
  MIC against E. coli BL21: 50 mg/L
Aeromonas hydrophila; [8]
  MIC against A. hydrophila: 25 mg/L
Serratia marcescens; [9]
  MIC against S. marcescens: 50 mg/L

## PRT87 (DACLLNPCQNQGSCRHLPGAPHGYTCDCVGGYFGHHCE; listed as Homo sapiens)
Moraxella catarrhalis; [1]
  MIC (μg/mL) M. catarrhalis: 25 µg/mL
Pseudomonas aeruginosa; [2]
  MIC (μg/mL) P. aeruginosa: 12.5 µg/mL
Proteus mirabilis; [3]
  MIC (μg/mL) P. mirabilis: 12.5 µg/mL
Proteus vulgaris; [4]
  MIC (μg/mL) P. vulgaris: 25 µg/mL
E. coli DH5α
  MIC: 12.5 mg/L
Citrobacter diversus; [5]
  MIC (μg/mL) C. diversus: 50 µg/mL
Klebsiella pneumonia; [6]
  MIC (μg/mL) K. pneumonia: 50 µg/mL
Enterobacter cloacae; [7]
  MIC (μg/mL) E. cloacae: 12.5 µg/mL
E. coli BL21; 96-well plate, 37° C., 10 h
  MIC (μg/mL) E. coli BL21: 12.5 µg/mL
Aeromonas hydrophila; [8]
  MIC (μg/mL) A. hydrophila: 25 µg/mL
Serratia marcescens; [9]
  MIC (μg/mL) S. marcescens: 50 µg/mL

## PRT1186 (KNSSCLPNPCVNGGTCVGSGASFSCICRDGWEGRTCT; listed as Homo sapiens)
Moraxella catarrhalis; 10 h cultivation at 37° C.
  MIC M. catarrhalis: 50 mg/L
Pseudomonas aeruginosa; 10 h cultivation at 37° C.
  MIC P. aeruginosa: 12.5 mg/L
Proteus mirabilis; 10 h cultivation at 37° C.
  MIC P. mirabilis: 12.5 mg/L
Proteus vulgaris; 10 h cultivation at 37° C.
  MIC P. vulgaris: 50 mg/L
E. coli DH5α
  MIC: 50 mg/L
Citrobacter diversus; 10 h cultivation at 37° C.
  MIC C. diversus: 25 mg/L
Klebsiella pneumonia; 10 h cultivation at 37° C.
  MIC K. pneumonia: 25 mg/L
Enterobacter cloacae; 10 h cultivation at 37° C.
  MIC E. cloacae: 50 mg/L
E. coli BL21; 10 h cultivation at 37° C.
  MIC E. coli BL21: 25 mg/L
Aeromonas hydrophila; 10 h cultivation at 37° C.
  MIC A. hydrophila: 12.5 mg/L
Serratia marcescens; 10 h cultivation at 37° C.
  MIC S. marcescens: 12.5 mg/L

## PRT1069 (VTNPCDRKKCEWLCLLSPSGPVCTCPNGKRLDNGTCV; listed as Homo sapiens)
Moraxella catarrhalis; 10 h cultivation at 37° C.
  MIC M. catarrhalis: 25 mg/L
Pseudomonas aeruginosa; 10 h cultivation at 37° C.
  MIC P. aeruginosa: 12.5 mg/L
Proteus mirabilis; 10 h cultivation at 37° C.
  MIC P. mirabilis: 12.5 mg/L
Proteus vulgaris; 10 h cultivation at 37° C.
  MIC P. vulgaris: 25 mg/L
E. coli DH5α
  MIC: 12.5 mg/L
Citrobacter diversus; 10 h cultivation at 37° C.
  MIC C. diversus: 50 mg/L
Klebsiella pneumonia; 10 h cultivation at 37° C.
  MIC K. pneumonia: 25 mg/L
Enterobacter cloacae; 10 h cultivation at 37° C.
  MIC E. cloacae: 50 mg/L
E. coli BL21; 10 h cultivation at 37° C.
  MIC E. coli BL21: 50 mg/L
Aeromonas hydrophila; 10 h cultivation at 37° C.
  MIC A. hydrophila: 12.5 mg/L
Serratia marcescens; 10 h cultivation at 37° C.
  MIC S. marcescens: 25 mg/L
